Tested on: NOMO1
Test: cell viability relative to DMSO control; higher = less cytotoxic
Conditions: 48 h
Procedure, shortened: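 Viability, reported as a per-plate percentage of DMSO wells with cell-free wells as background, came from CellTiter-Glo One luminescence. Reading took place after 48 h at 37°C. Before that, NOMO1 or SEM (500 cells/well) or P12-Ichikawa (1000 cells/well) leukemia cells, adapted for at least four passages in each medium, were seeded in 1536-well plates (5 μl) and pin-dosed with library compounds in DMSO, 47 μM to 0.79 nM over 11 threefold points.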

[1] = RPMI 5 mM glucose + 10% FBS, 0.000781 µM
[2] = RPMI 5 mM glucose + 10% FBS, 0.00234 µM
[3] = RPMI 5 mM glucose + 10% FBS, 0.00702 µM
[4] = RPMI 5 mM glucose + 10% FBS, 0.0211 µM
[5] = RPMI 5 mM glucose + 10% FBS, 0.0632 µM
[6] = RPMI 5 mM glucose + 10% FBS, 0.19 µM
[7] = RPMI 5 mM glucose + 10% FBS, 0.569 µM
[8] = RPMI 5 mM glucose + 10% FBS, 1.71 µM
[9] = RPMI 5 mM glucose + 10% FBS, 5.12 µM
[10] = RPMI 5 mM glucose + 10% FBS, 15.4 µM
[11] = RPMI 5 mM glucose + 10% FBS, 46.1 µM
[12] = RPMI 5 mM glucose + 10% dialyzed FBS, 0.000781 µM
[13] = RPMI 5 mM glucose + 10% dialyzed FBS, 0.00234 µM
[14] = RPMI 5 mM glucose + 10% dialyzed FBS, 0.00702 µM
[15] = RPMI 5 mM glucose + 10% dialyzed FBS, 0.0211 µM
[16] = RPMI 5 mM glucose + 10% dialyzed FBS, 0.0632 µM
[17] = RPMI 5 mM glucose + 10% dialyzed FBS, 0.19 µM
[18] = RPMI 5 mM glucose + 10% dialyzed FBS, 0.569 µM
[19] = RPMI 5 mM glucose + 10% dialyzed FBS, 1.71 µM
[20] = RPMI 5 mM glucose + 10% dialyzed FBS, 5.12 µM
[21] = RPMI 5 mM glucose + 10% dialyzed FBS, 15.4 µM
[22] = RPMI 5 mM glucose + 10% dialyzed FBS, 46.1 µM

C[C@@H](Cc1cc2c(c(C(N)=O)c1)N(CCCO)CC2)NCCOc1ccccc1OCC(F)(F)F gave a cell viability (HPLM + 10% dialyzed FBS, 0.000781 µM) of 94.5%, a cell viability (HPLM + 10% dialyzed FBS, 0.00234 µM) of 99.7% and a cell viability (HPLM + 10% dialyzed FBS, 0.00702 µM) of 101%. It also gave a cell viability (HPLM + 10% dialyzed FBS, 0.0211 µM) of 120%, a cell viability (HPLM + 10% dialyzed FBS, 0.0632 µM) of 107% and a cell viability (HPLM + 10% dialyzed FBS, 0.19 µM) of 123%. For the same compound, the cell viability (HPLM + 10% dialyzed FBS, 0.569 µM) was 122%, the cell viability (HPLM + 10% dialyzed FBS, 1.71 µM) was 135% and the cell viability (HPLM + 10% dialyzed FBS, 5.12 µM) was 111%. The cell viability (HPLM + 10% dialyzed FBS, 15.4 µM) was 114%, the cell viability (HPLM + 10% dialyzed FBS, 46.1 µM) was 113% and the cell viability [1] was 94.5%. The cell viability [2] was 105%, the cell viability [3] was 107% and the cell viability [4] was 106%. The cell viability [5] was 112%, the cell viability [6] was 109% and the cell viability [7] was 110%. The cell viability [8] was 105%, the cell viability [9] was 116% and the cell viability [10] was 110%. For the same compound, the cell viability [11] was 106%, the cell viability [12] was 89.4% and the cell viability [13] was 106%. The cell viability [14] was 106%, the cell viability [15] was 104% and the cell viability [16] was 126%. It also gave a cell viability [17] of 115%, a cell viability [18] of 109% and a cell viability [19] of 121%. The cell viability [20] was 116%, the cell viability [21] was 105% and the cell viability [22] was 104%.
For C/C1=C/C(=C(/CNC(=O)C2=CC(=CC3=C2C=N[N]3C4CCCC4)C5=CC=C(CN6CCOCC6)C=C5)C(=O)N1)C, the cell viability [1] was 110%, the cell viability [2] was 125% and the cell viability [3] was 118%. It also gave a cell viability [4] of 120%, a cell viability [5] of 132% and a cell viability [6] of 127%. For the same compound, the cell viability [7] was 127%, the cell viability [8] was 124% and the cell viability [9] was 104%. It also gave a cell viability [10] of 117%, a cell viability [11] of 22% and a cell viability [12] of 124%. For the same compound, the cell viability [13] was 118%, the cell viability [14] was 128% and the cell viability [15] was 123%. The cell viability [16] was 125%, the cell viability [17] was 111% and the cell viability [18] was 131%. The cell viability [19] was 125%, the cell viability [20] was 125% and the cell viability [21] was 112%. It also gave a cell viability [22] of 13.5%.

From the supplement of paper PMC11451515
